The subject of series [1] is P388 murine leukemia cell line. As to the kind of experiment: P388 cytotoxicity (antiproliferative) MTT assay. The format is cell-based. The settings on record: P388 murine leukemia cells, 48 hours exposure. As to the method: (§1) Compounds were analyzed as to their effects on proliferation of A549 human lung adenocarcinoma and P388 murine leukemia cell lines. P388 cells were obtained from Dr. R. Camalier, National Cancer Institute, Bethesda, Md., and A549 cells were obtained from American Type Culture Collection, Rockville, Md. All cell lines were maintained in Roswell Park Memorial Institute (RPMI) medium 1640 supplemented with 100 U/ml penicillin, […], 60 […], 18 mM HEPES, 0.05 mg/ml gentamicin (Life Technologies, Gaithersburg, Md.) and 10% fetal bovine serum and cultured in plastic tissue culture flasks at 37° C. in humidified air containing 5% CO2. Stock cultures of P388 cells were subcultured 1:20 in fresh tissue culture medium (TCM) every 2 to 3 days. Stock cultures of A549 cells were subcultured 1:10 every 3 to 4 days.
(§2) To assess the antiproliferative effects of agents against P388 cells, 200 μl cultures (96-well tissue culture plates, Nunc, Denmark) were established at 2×10^4 cells/ml in TCM or TCM containing the test agent at 0.03-5.0 μg/ml. After 48 hours exposure, P388 cells were enumerated using 3-[4,5-dimethylthiazol-2-yl]-2,5-diphenyltetrazolium bromide (MTT) as described in the literature (Alley, M. D. et al. [1988] Cancer Res. 48:589). A549 cells were enumerated in the same manner using 200 μl cultures established at 3×10^4 cells/ml and exposing the cultures to the test agents for 72 hours. The results were expressed as percent inhibition compared to the negative (no drug) control. Positive drug controls of varying dilutions of 5-fluorouracil and adriamycin (Sigma Chemical Co., St. Louis, Mo.) were included to monitor drug sensitivity of the cell line.
(§3) To quantitate the effects of compounds on cell proliferation and resulting IC50 values, 75 μl of warm growth media containing 5 mg/ml MTT is added to each well, cultures returned to the incubator, and left undisturbed for 3 hours. To spectrophotometrically quantitate formation of reduced formazan, plates are centrifuged (500×g, 10 minutes), culture fluids removed by aspiration, and 200 μl of acidified isopropanol (2 ml concentrated HC1/liter isopropanol) added per well. The absorbance of the resulting solutions is measured in a plate reader (Tecan Spectra SLT; TECAN U.S., Research Triangle Park, NC) at 570 nm with a 650 nm reference filter. The absorbance of tests wells is divided by the absorbance of drug-free wells, and the concentration of agent that results in 50% of the absorbance of untreated cultures (IC50) is determined by linear regression of logit-transformed data (Finney, D. J. [1978] Statistical Method in Biological Assay, third ed., pp.316-348, Charles Griffin Co., London). A linear relationship between tumor cell number and formazan production has been routinely observed over the range of cell densities observed in these experiments. The two standard drug controls (indicated above) are included in each assay as a check to monitor the drug sensitivity of each of the cell lines and IC50 values are determined for each drug-cell combination.
(In general: Tetrazolium dyes change colour on reduction, which living cells bring about.)

Series [2] has as its system A549 human lung adenocarcinoma cell line. As to the kind of experiment: A549 cytotoxicity (antiproliferative) MTT assay. Type of series: cell-based. The settings on record: A549 human lung adenocarcinoma cells, 72 hours exposure. As to the method:
as §1, §2, §3

For series [3], the system named is NCI in vitro tumor cell line panel (approximately 60 cell lines). As to the kind of experiment: National Cancer Institute's in vitro tumor cell line panel. The format is cell-based, human. An excerpt: Discalamide A was additionally evaluated for its anti-proliferative effects utilizing the National Cancer Institute's in vitro tumor cell line panel. The results of these analyses are shown in the mean graphs presented as FIG. 3. The data are presented using known and accepted measurements of “lethal concentration-50” (LC50) where 50% of the cells are killed.

What is called IC50 is the point on the concentration scale where inhibition reaches its midpoint. With Discalamide B [2GP311 (Discalamide B)], the IC50 in series [1] was found to be 7.3 nM; in series [2] it was 3.2 nM.

Consider `C=C1C[C@](OC)([C@H](O)C(=O)N[C@H]2OCO[C@H]3[C@@H]2O[C@H](CC(/C=C/C/C=C/C=C/C(=O)O)OC)C(C)(C)[C@@H]3OC)O[C@H](C)[C@@H]1C` (some centres unmarked) [2GP111 (Discalamide A), Discalamide A], for which the IC50 was determined as 0.1 nM in series [1] and 1.5 nM in series [2]. Also, the “effectiveness according to LC50 measurements for the NCI cell lines” value in series [3] (HL-60(TB), K562, COLO 205, HCC-2998, SF-295, SNB-19, LOX IMVI, MALME-3M, M14, SK-MEL-2, SK-MEL-28, SK-MEL-5, UACC-257, CAKI-1, HS578T, MDA-MB-231/ATCC) is recorded as “particularly effective”. In addition, in series [3] (of approximately 60 cell lines tested, bars to the right of the midline, FIG. 3), the “selective cytotoxicity by LC50 mean graphs (number of cell lines)” value is 16 cell lines.

Regarding Ecteinascidin 729, the IC50 in series [1] stood at 1.2 nM.

As for `C=C1C[C@](OC)([C@H](O)C(=O)N[C@H]2OCO[C@H]3[C@@H]2O[C@H](C[C@H](O)CO)C(C)(C)[C@@H]3OC)O[C@H](C)[C@@H]1C` [Mycalamide A], the half-maximal inhibitory concentration (IC50) is 5.2 nM in series [1] and 3.6 nM in series [2].

For the molecule `C=C1C[C@](OC)([C@H](O)C(=O)N[C@H]2OCO[C@H]3[C@@H]2O[C@H](C[C@H](O)CCC/C=C/C=C/C=C/C(=O)N[C@@H](CCCNC(=N)N)C(=O)O)C(C)(C)[C@@H]3OC)O[C@H](C)[C@@H]1C` [Onnamide A], the half-inhibitory concentration (IC50) in series [1] came to 2.4 nM; in series [2] it was 170 nM.

Consider `C=C1C[C@](OC)([C@H](O)C(=O)N[C@H]2OCO[C@H]3[C@@H]2O[C@H](C[C@@H](CO)OC)C(C)(C)[C@@H]3OC)O[C@H](C)[C@@H]1C` [Mycalamide B], for which the concentration for half-maximal inhibition (IC50) in series [1] came to 1.3 nM; in series [2] it was 0.6 nM.

Take `COc1cc2c(cc1O)CCN[C@]21CS[C@@H]2c3c(OC(C)=O)c(C)c4c(c3[C@H](COC1=O)N1[C@@H]2[C@H]2c3c(cc(C)c(OC)c3O)C[C@@H]([C@@H]1O)N2C)OCO4` [Ecteinascidin 743]: in series [1], the IC50 came to 1.7 nM.

Take “Discalamide A methylester [2GP313 (Discalamide A-methylester)]”: the IC50 in series [1] stood at 0.3 nM; in series [2], 0.8 nM.

Turning to `C=C(CCC(C)C)COC(=O)[C@H](O)C/C=C\C[C@@H]1O[C@@H]2/C=C/C/C=C/C(C)=C\[C@H]3O[C@@H](C/C=C/C=C/C(=O)O[C@H](C2)[C@@]1(C)CO)C[C@H](O)[C@H]3C` [Lasonolide A], the half-inhibitory concentration (IC50) amounted to 2.8 nM in series [1] and 57 nM in series [2].

On to `C=C/C=C\[C@H](C)[C@H](OC(N)=O)[C@@H](C)[C@H](O)[C@@H](C)C/C(C)=C\[C@H](C)[C@@H](O)[C@@H](C)/C=C\[C@@H](O)C[C@@H]1OC(=O)[C@H](C)[C@@H](O)[C@H]1C` [Discodermolide], for which the IC50 stood at 55 nM in series [1] (Mus musculus) and 25 nM in series [2].

Source of the values: patent US6476065B2, “Discalamide compounds and their use as anti-proliferative agents” (priority 2000, dated 2002).
